We go through 16 molecules from PMC10580313, “A Chemoproteomic Approach to Elucidate the Mechanism of Action of 6-Azasteroids with Unique Activity in Mycobacteria” (ACS Infectious Diseases, 2023).

One experiment relates to Mtb (CDC1551). The experiment in a line: BDQ potentiation MIC99 microbroth assay, Mtb. The format is cell-based, Mycobacterium tuberculosis. The following applies: 6-azasteroid fixed at 20 μM; relative to BDQ MIC99 without azasteroid.
The next experiment has as its system HepG2 cells. Nature of the experiment: Cytotoxicity assay (Alamar Blue), HepG2. The format is cell-based, human. Particulars: 72 h, read-out: Mammalian Cell IC50, HepG2. On the technique in general: Resazurin is reduced to fluorescent resorufin, in cell work by metabolically active cells.
The test system of the next experiment is Mtb. Nature of the experiment: MIC of 6-azasteroid alone, Mtb. The format is cell-based, Mycobacterium tuberculosis. The following applies: (MIC99 reported as micromolar).

By IC50 is commonly meant the concentration needed to halve the response being measured. Consider `CC(C)(C)c1ccc(C(F)(F)F)cc1NC(=O)C1CCC2C3CNC4=CC(=O)CC[C@]4(C)C3CC[C@]12C` (some centres unmarked) [compound 5], for which the “Fold ∆ of BDQ MIC, Mtb” value in the experiment with Mtb (CDC1551) was 2 fold. Besides, the 50% inhibitory concentration (IC50) with HepG2 cells was found to be 60 µM. In the experiment on Mtb, the “Mtb MIC Alone” value was above 20 µM.
Take `CC(C)(C)c1ccc(C(F)(F)F)cc1NC(=O)C1CCC2C3CNC4CC(=O)CC[C@]4(C)C3CC[C@]12C` (some centres unmarked) [compound 7]: the IC50 in the experiment with HepG2 cells is 12.1 µM. Moreover, the “Mtb MIC Alone” value in the experiment on Mtb is 30 µM.
As to `C[C@]12CCC(=O)CC1NCC1C2CC[C@]2(C)C(C(=O)Nc3cc(Br)ccc3Br)CCC12` (some centres unmarked) [compound 10], the IC50 in the experiment with HepG2 cells worked out at 7.6 µM. For the same molecule, the “Mtb MIC Alone” value in the experiment with Mtb was 30 µM.
For `CCCN1CC2C3CCC(C(=O)NC(c4ccc(F)cc4)c4ccc(F)cc4)[C@@]3(C)CCC2[C@@]2(C)CCC(=O)C=C12` (some centres unmarked) [compound 13], in the experiment with Mtb (CDC1551), the “Fold ∆ of BDQ MIC, Mtb” value is 128 fold. In the experiment with HepG2 cells, the IC50 is above 100 µM. In the experiment on Mtb, the “Mtb MIC Alone” value is above 20 µM.
On to `C[C@]12CCC(=O)CC1NCC1C2CC[C@]2(C)C(C(=O)NC(c3ccc(F)cc3)c3ccc(F)cc3)CCC12` (some centres unmarked) [compound 14], for which the IC50 in the experiment on HepG2 cells came to 14.2 µM. In the experiment with Mtb, the “Mtb MIC Alone” value turned out to be 80 µM.
Take `C[C@]12CCC3C(CNC4=CC(=O)CC[C@@]43C)C1CCC2C(=O)NC(c1ccc(F)cc1)c1ccc(C(F)(F)F)cc1` (some centres unmarked) [compound 15]: the “Fold ∆ of BDQ MIC, Mtb” value in the experiment with Mtb (CDC1551) was found to be 64 fold. Also, the half-maximal inhibitory concentration (IC50) in the experiment with HepG2 cells was determined as 26 µM. Besides, the “Mtb MIC Alone” value in the experiment on Mtb was above 20 µM.
With `C[C@]12CCC3C(CNC4=CC(=O)CC[C@@]43C)C1CCC2C(=O)NC(c1ccncc1)c1ccc(F)cc1` (some centres unmarked) [compound 18], in the experiment with Mtb (CDC1551), the “Fold ∆ of BDQ MIC, Mtb” value is 4 fold. Also, the IC50 in the experiment on HepG2 cells was above 100 µM. The “Mtb MIC Alone” value with Mtb stood at 15 µM.
For `C[C@]12CCC3C(CNC4=CC(=O)CC[C@@]43C)C1CCC2C(=O)NC(c1ccc(F)cc1)c1ccc(OC(F)(F)F)cc1` (some centres unmarked) [compound 19], in the experiment with Mtb (CDC1551), the “Fold ∆ of BDQ MIC, Mtb” value is on record as 32-64 fold. In the experiment with HepG2 cells, the concentration for half-maximal inhibition (IC50) turned out to be 58.4 µM. Also, the “Mtb MIC Alone” value with Mtb was above 20 µM.
Consider `C[C@]12CCC(=O)CC1NCC1C2CC[C@]2(C)C(C(=O)NC(c3ccc(F)cc3)c3ccc(OC(F)(F)F)cc3)CCC12` (some centres unmarked) [compound 20], for which, in the experiment on Mtb (CDC1551), the “Fold ∆ of BDQ MIC, Mtb” value is above 32 fold. The IC50 in the experiment on HepG2 cells is 5.7 µM. Moreover, the “Mtb MIC Alone” value with Mtb was above 20 µM.
For `C[C@]12CCC(O)CC1NCC1C2CC[C@]2(C)C(C(=O)NC(c3ccc(F)cc3)c3ccc(OC(F)(F)F)cc3)CCC12` (some centres unmarked) [compound 21], in the experiment with Mtb (CDC1551), the “Fold ∆ of BDQ MIC, Mtb” value was above 32 fold. Further, the “Mtb MIC Alone” value with Mtb was above 20 µM.
With `C[C@]12CCC3C(CNC4=CC(=O)CC[C@@]43C)C1CCC2C(=O)NC(c1ccc(C(F)(F)F)cc1)c1ccc(C(F)(F)F)cc1` (some centres unmarked) [compound 25], the “Fold ∆ of BDQ MIC, Mtb” value in the experiment with Mtb (CDC1551) was found to be 8 fold. Also, the IC50 in the experiment with HepG2 cells turned out to be 75.7 µM. In the experiment with Mtb, the “Mtb MIC Alone” value turned out to be 20 µM.
Consider `C[C@]12CCC(=O)CC1NCC1C2CC[C@]2(C)C(C(=O)NC(c3ccc(C(F)(F)F)cc3)c3ccc(C(F)(F)F)cc3)CCC12` (some centres unmarked) [compound 26], for which the IC50 in the experiment on HepG2 cells is 6 µM. The “Mtb MIC Alone” value in the experiment with Mtb was 7.5 µM.
In the case of `C[C@]12CCC(N)CC1NCC1C2CC[C@]2(C)C(C(=O)NC(c3ccc(OC(F)(F)F)cc3)c3ccc(OC(F)(F)F)cc3)CCC12` (some centres unmarked) [compound 30], in the experiment on HepG2 cells, the IC50 came out at 2.7 µM. In the experiment on Mtb, the “Mtb MIC Alone” value stood at 80 µM.
With `C[C@]12CCC(O)CC1NCC1C2CC[C@]2(C)C(C(=O)NC(c3ccc(OC(F)(F)F)cc3)c3ccc(OC(F)(F)F)cc3)CCC12` (some centres unmarked) [compound 32], in the experiment on HepG2 cells, the half-inhibitory concentration (IC50) was determined as 5.75 µM. Further, in the experiment on Mtb, the “Mtb MIC Alone” value turned out to be 5 µM.
For the molecule `CC12CCC(=O)C=C1CCC1C2CCC2(C)C(C(=O)NC(c3ccc(OC(F)(F)F)cc3)c3ccc(OC(F)(F)F)cc3)CCC12` (centres unmarked) [compound 33], the “Fold ∆ of BDQ MIC, Mtb” value in the experiment on Mtb (CDC1551) turned out to be 1 fold. Moreover, the IC50 with HepG2 cells was above 100 µM. In the experiment with Mtb, the “Mtb MIC Alone” value is above 80 µM.
For `CC12CCC(=O)CC1CCC1C2CCC2(C)C(C(=O)NC(c3ccc(OC(F)(F)F)cc3)c3ccc(OC(F)(F)F)cc3)CCC12` (centres unmarked) [compound 34], the “Fold ∆ of BDQ MIC, Mtb” value with Mtb (CDC1551) is 1 fold. In addition, in the experiment on HepG2 cells, the IC50 was above 100 µM. Further, the “Mtb MIC Alone” value in the experiment with Mtb was above 80 µM.
